The values below come from patent publication US12421489B2, “Biological control of plant pathogenic microorganisms” (priority 2016, dated 2025).

Holding throughout (type): in vivo
In assay [1] the test system is Pseudomonas syringae pv. actinidiae (Psa). Nature of the assay: Field trials 2015-16: foliar sprays on ‘Hayward’ vines, Blocks B and C, Maketu. The note with it: mean of Blocks B and C. The text has this:
Grower standard treatment: Kocide Opti+1×Kasumin
Two field trial sites were established during spring 2015 with the intention of running across two consecutive seasons. The two ‘Hayward’ blocks (coded Block B and C) were located in separate orchards, near Maketu, Bay of Plenty. Block C was the same orchard as the 2014-15 trial, but a different area in the blocks was used. Vines in all blocks were pergola trained with a single vine per bay. The vines generally looked healthy at the commencement of the trial, but had suffered from significant Psa symptoms 2-3 years previously, according to the grower.
The spray treatments were applied to individual vines (eight replicates per treatment) laid out in a randomised block design. The treatments were: • 1. Nil—no Psa control products applied during the growing season • 2. Grower standard—copper-based foliar spray programme, including up to one antibiotic spray • 3. YBCA5—yeast-based foliar spray programme (2×10^7 CFU/mL)
Spray applications in the Grower standard and YBCA5 treatments were applied according to the schedule in Table 5. Common agricultural adjuvants were added to the Grower standard (0.04% Du-Wett®) and YBCA5 (0.03% Nu-Film-17@) applications.
The YBCA5 yeast was produced by liquid fermentation, sourced from three separate production facilities: PFR (Ruakura), AgResearch (Lincoln) and Callaghan Innovation (Lower Hutt). A concentrated yeast pellet after centrifugation was supplied to the laboratory at Ruakura and this was mixed with an inert carrier and extruded to form granules which were air dried overnight in a laminar flow hood. The number of colony forming units/g was calculated by dissolving 0.2 g samples into 20 mL phosphate buffered saline amended with 0.05% Tween 80 (PBSTw). This was serially diluted and 10-μL droplets of each dilution were transferred to Petri dishes with malt yeast extract agar amended with chloramphenicol. Petri dishes were incubated for 24 h at 25° C. and then 4-6° C. for a further 24 h, prior to counting the number of colonies. […]
Psa disease assessments were carried out in the ‘Hayward’ blocks just prior to flowering on 11 Nov. […] Assessments were commenced after taking one step (i.e. 1 m) from the edge of the plot and a set of 25 leaves were scored. […] This was then repeated down the other side of the vine so that four sets of 25 leaves (total=100) were scored within each plot. Similarly, 100 buds/plot were scored for the severity of bud-browning, as described above.
Data were expressed as Psa incidence (based on the proportion of leaves with Psa spotting/proportion of buds with brown sepals) and average Psa severity (mean % leaf area necrotic/mean number of brown sepals on buds). Data were log-transformed and analysed by ANOVA using Genstat (ver. 16) to determine treatment differences. […]

Assay [2] deals with Botrytis spp. Briefly: Cherry inoculation assays 2 and 4: Botrytis spp. fruit rot of ‘Sweet Valentine’ cherries, dip treatment. The note with it: Assay 4, cherries, cumulative after 16 days; nil 67%; not significantly reduced (P>0.05). The protocol:
(§1) Fruit-based screening assays were conducted in laboratories at the Plant and Food Research Ruakura Research Centre, Hamilton, New Zealand (PFR). PFR assays focused on dip treatment application of YBCA5 and fungicide controls.
(§2) Fruit for Monilinia fructicola and Botrytis spp. inoculation assays were carried out on sweet cherries (Prunus avium ‘Sweet Valentine’) that were picked at the harvest mature stage and sourced from the PFR Clyde Research Orchard in Central Otago on 8 Jan. 2016 for fruit based assays 1 and 2. A second harvest was carried out on 13 Jan. 2016 for fruit based assays 3 and 4.
(§3) Each cherry was then subjected to a double wash process. Wash one consisted of 10 minutes in tap water on a rotary shaker (110 rpm) followed by a five minute wash in SDW (Wash 2). […]
A Botrytis spp. culture (isolate code 09-2), which had been originally isolated from an infected kiwifruit located in the Bay of Plenty region during the 2000s, was used for the spray inoculation assays included in this section carried out on cherries. […] This stock suspension was then filtered using a 70 μm cell strainer (70 μm mesh) to remove mycelial fragments, the concentration determined using a haemocytometer and then adjusted, by dilution with SDW+Tw 80 (0.01% v/v) to a final concentration of 1×10^5 conidia/mL. […]

Assay [3] deals with Botrytis spp. Nature of the assay: Grape inoculation assay 5: Botrytis spp. rot of wounded table grape berries. Conditions: Assay 5, wounded table grapes, 9 days, mean of two Botrytis spp. isolates; nil 30%; significantly reduced (P<0.001). The protocol:
Fruit assays were carried out on detached white table grape berries (‘Thompson seedless’—Assay 5), imported from California that were sourced from a local supermarket in Hamilton. Each berry was detached from the bunch with 3-4 mm of pedicel remaining and then subjected to a double wash process. Wash one consisted of 10 minutes in tap water on a rotary shaker (110 rpm) followed by a five minute wash in SDW (Wash 2). All berries were placed onto sterile black plastic grids in a sterile plastic meat tray with two sterile paper towels and were allowed to dry in a laminar flow hood. Each berry was lightly wounded with the aid of fine sandpaper, Grade P220, then dipped in the treatments for 60 seconds and again allowed to dry.
YBCA5 granules were prepared by fermenting the yeast for 3 days in a 10 L bioreactor (Labfors) using sterile liquid media (4% molasses and 1.2 g/L urea). […]
Botrytis spp. inoculum was prepared by growing each isolate of Botrytis spp. for 5-7 days on PDA (DIFCO, Fort Richard) medium and harvesting the conidia by washing the plate with SDW plus Tween 80 (0.01%) to make a stock suspension of inoculum. This stock suspension was then filtered using a cell strainer (70 μm mesh, Falcon) to remove mycelial fragments, the concentration determined using a haemocytometer and adjusted to the required concentration (2×10^4 conidia/mL) equivalent to 200 conidia in each 10 μL droplet. […]

Assay [4] concerns Monilinia fructicola. Briefly: Cherry inoculation assays 1 and 3: Monilinia fruit rot of ‘Sweet Valentine’ cherries, dip treatment. The note with it: Assay 3, cherries, cumulative after 16 days; Nil 88%; YBCA5 not significant (P>0.05), captan P<0.001. The protocol:
as §1, §2, §3
A Monilinia fructicola culture (isolate code MFGQ3), which had been originally isolated from an infected peach tree located in the Hamilton region during 1998, was used for the spray inoculation assays included in this section (Ruakura based assay). […] This stock suspension was then filtered using a 70 μm cell strainer (to remove mycelial fragments), the concentration determined using a haemocytometer and then adjusted, by dilution with SDW+Tw 80 (0.05%) to a final concentration of 1×10^4 conidia/mL. […]

For the molecule `[Cu+2].[OH-].[OH-]` [Kocide Opti, Copper Hydroxide], in assay [1] (assessed Nov. 11, 2015, Nil control 0.24, LSD 0.099), the “Severity of spotting (% leaf area)” value worked out at 0.07 b % leaf area. Further, the “Severity of bud browning (No. sepals)” value in assay [1] (assessed Nov. 11, 2015, Nil control 1.29, LSD 0.226) is 0.80 b No. sepals. Besides, the “% leaves with spotting (incidence)” value in assay [1] (assessed Nov. 11, 2015, Nil control 50, LSD 8.0) is listed as 27 b %. Also, the “% buds with necrosis (incidence)” value in assay [1] (assessed Nov. 11, 2015, Nil control 61, LSD 9.9) turned out to be 45 b %.
As for `O=C1C2CC=CCC2C(=O)N1SC(Cl)(Cl)Cl` (stereo not shown) [captan], the figures for the “incidence of Botrytis spp. fruit rot” value in assay [2] and in assay [3] were 43% and 10%, respectively. For the same molecule, the “incidence of Monilinia fruit rot” value in assay [4] came to 12%.
